Experimental data published in ChEMBL document CHEMBL1201862, “PubChem BioAssay data set” (2004).
Calls of active or inactive are those of the source.

Key:
[1] = target: Lysine-specific demethylase 4A (Homo sapiens, UniProt O75164); experiment: JMJD2A histone demethylase inhibitors, dose response, selectivity assay for GASC-1 inhibitor project, biochemical, DELFIA europium, cherry-picked samples (AID 488840)
[2] = target: Neuropeptide Y receptor type 2 (Homo sapiens, UniProt P49146); experiment: NPY-Y2 antagonist potency, selectivity check, dose response, counter-screen for NPY-Y1 antagonist project, cell-based (AID 1278); assay type: functional
[3] = target: Neuropeptide Y receptor type 1 (Homo sapiens, UniProt P25929); experiment: NPY-Y1 receptor antagonist potency, dose response, cell-based (AID 1277); assay type: functional
Chain of Neuropeptide Y receptor type 1 (P25929 whole entry): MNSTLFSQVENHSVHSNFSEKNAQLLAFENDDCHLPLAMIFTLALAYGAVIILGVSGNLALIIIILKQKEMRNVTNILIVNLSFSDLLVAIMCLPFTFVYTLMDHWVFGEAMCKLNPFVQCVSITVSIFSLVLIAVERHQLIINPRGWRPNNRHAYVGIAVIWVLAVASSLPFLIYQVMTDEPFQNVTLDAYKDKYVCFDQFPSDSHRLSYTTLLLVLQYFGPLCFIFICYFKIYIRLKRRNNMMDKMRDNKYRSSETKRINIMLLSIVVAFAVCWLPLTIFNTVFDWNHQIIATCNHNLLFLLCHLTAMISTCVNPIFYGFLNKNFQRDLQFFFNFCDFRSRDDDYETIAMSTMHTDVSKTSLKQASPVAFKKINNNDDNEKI

[4] = test system: Jurkat; experiment: antigen receptor-induced NF-kB inhibitors, dose response, Jurkat, luciferase reporter, luminescence, B- and T-cell (AID 489004); assay type: functional, cell-based; settings: Homo sapiens;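 further: NF-kB luciferase reporter Jurkat cells stimulated with PMA plus ionomycin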
[5] = cytotoxicity in HEK-293T NF-kB-Luc cells, dose response, cytotoxicity control for B/T-cell NF-kB inhibitor project, cell-based, uHTS hits (AID 489019); assay type: functional;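 further: IC50 reflects cytotoxicity as loss of cell viability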
[6] = test system: INS1; experiment: beta cell apoptosis inhibitors, cytokine rescue, dose response, luminescence, retest (AID 449756); assay type: functional, cell-based; settings: Rattus norvegicus;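 further: cell death triggered by IL-1 beta plus TNF-alpha plus IFN-gamma mixture; protective hits raise ATP signal compared with cytokine alone wells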
[7] = target: T1, RNA-binding protein pos-1 (Caenorhabditis elegans, UniProt G5EF15); experiment: inhibitors of POS-1/mex-3 RNA binding, dose response, biochemical, fluorescence polarization (AID 1964);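 further: purified POS-1 fused to maltose binding protein made in E. coli; potency of compounds blocking POS-1 binding to fluorescent RNA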
T1 sequence (G5EF15 whole entry): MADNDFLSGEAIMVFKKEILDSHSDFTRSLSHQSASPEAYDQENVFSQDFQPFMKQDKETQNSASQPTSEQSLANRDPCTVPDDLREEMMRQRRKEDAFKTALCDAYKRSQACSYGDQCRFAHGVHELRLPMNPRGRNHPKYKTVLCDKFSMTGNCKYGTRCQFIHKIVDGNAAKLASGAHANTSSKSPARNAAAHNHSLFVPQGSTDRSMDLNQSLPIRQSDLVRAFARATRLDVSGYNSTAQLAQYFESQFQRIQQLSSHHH

[8] = target: T2, Zinc finger protein mex-5 (Caenorhabditis elegans, UniProt Q9XUB2); experiment: MEX-5/TCR-2 RNA interaction inhibitors, dose response, biochemical, C. elegans, fluorescence polarization (AID 1960)
T2 sequence (Q9XUB2 whole entry): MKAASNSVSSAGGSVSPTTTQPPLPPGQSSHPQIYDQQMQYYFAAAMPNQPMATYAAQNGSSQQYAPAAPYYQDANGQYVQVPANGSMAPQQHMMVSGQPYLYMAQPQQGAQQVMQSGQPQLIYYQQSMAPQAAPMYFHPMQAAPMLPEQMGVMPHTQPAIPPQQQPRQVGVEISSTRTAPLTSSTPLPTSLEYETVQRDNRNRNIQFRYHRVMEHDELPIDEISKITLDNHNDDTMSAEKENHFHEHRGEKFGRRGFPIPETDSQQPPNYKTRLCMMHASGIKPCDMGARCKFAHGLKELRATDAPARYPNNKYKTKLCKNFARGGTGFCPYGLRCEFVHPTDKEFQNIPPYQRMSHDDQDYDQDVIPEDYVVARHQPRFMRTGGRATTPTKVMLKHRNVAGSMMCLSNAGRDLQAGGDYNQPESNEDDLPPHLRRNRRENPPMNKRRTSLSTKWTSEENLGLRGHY

[9] = target: T3, Intestinal-type alkaline phosphatase (Mus musculus, UniProt P24822); experiment: PubChem AID 488785; assay type: functional
T3 sequence (P24822 whole entry): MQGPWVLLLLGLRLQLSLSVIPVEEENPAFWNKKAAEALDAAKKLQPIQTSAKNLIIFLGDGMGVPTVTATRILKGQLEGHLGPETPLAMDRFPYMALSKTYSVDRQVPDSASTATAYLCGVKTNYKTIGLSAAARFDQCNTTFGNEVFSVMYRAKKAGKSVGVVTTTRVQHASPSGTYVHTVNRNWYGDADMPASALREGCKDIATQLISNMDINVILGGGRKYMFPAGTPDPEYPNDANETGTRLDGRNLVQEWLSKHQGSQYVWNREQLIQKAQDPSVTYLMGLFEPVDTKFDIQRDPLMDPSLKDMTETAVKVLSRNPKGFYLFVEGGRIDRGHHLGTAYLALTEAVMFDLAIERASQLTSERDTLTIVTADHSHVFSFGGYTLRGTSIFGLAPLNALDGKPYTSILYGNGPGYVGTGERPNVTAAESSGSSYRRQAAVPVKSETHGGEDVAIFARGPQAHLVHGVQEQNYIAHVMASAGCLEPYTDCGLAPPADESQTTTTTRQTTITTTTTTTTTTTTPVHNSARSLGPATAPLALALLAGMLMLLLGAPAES

[10] = target: T4, Alkaline phosphatase, tissue-nonspecific isozyme (Homo sapiens, UniProt P05186); experiment: TNAP enzyme inhibition by screening hits, dose response, selectivity assay for mouse IAP inhibitor project, biochemical, human TNAP, uHTS hits (AID 488906); assay type: functional
T4 sequence (P05186 whole entry): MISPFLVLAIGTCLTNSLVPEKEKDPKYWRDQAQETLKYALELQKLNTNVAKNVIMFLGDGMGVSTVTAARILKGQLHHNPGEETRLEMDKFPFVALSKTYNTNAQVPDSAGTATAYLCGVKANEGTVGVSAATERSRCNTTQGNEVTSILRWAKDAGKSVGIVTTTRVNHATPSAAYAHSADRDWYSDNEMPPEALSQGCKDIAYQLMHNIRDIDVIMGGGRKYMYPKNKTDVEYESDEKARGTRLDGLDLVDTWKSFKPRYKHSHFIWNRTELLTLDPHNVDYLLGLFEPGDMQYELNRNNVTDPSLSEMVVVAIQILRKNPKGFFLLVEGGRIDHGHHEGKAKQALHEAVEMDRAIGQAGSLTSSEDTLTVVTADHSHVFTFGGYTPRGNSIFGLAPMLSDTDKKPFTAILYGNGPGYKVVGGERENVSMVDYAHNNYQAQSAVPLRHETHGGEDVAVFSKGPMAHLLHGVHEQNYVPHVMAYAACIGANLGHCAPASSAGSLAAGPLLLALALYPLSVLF

[11] = target: T5, Intestinal-type alkaline phosphatase (Homo sapiens, UniProt P09923); experiment: inhibition of human intestinal alkaline phosphatase – biochemical, dose response (AID 488876); assay type: functional
T5 sequence (P09923 whole entry): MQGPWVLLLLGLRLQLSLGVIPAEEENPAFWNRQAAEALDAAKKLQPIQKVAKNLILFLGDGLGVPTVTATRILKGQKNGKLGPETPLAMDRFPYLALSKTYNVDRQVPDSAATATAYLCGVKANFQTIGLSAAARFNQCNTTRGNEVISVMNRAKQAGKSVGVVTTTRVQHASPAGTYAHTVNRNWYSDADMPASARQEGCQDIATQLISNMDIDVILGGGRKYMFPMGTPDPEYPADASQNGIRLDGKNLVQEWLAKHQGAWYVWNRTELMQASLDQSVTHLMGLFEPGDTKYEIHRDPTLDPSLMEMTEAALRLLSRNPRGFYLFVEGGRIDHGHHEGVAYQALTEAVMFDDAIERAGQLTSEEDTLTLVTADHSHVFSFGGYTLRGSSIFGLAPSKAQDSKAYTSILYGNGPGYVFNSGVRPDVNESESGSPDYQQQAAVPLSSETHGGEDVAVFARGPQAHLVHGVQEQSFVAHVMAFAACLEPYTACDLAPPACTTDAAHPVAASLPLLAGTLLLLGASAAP

[12] = target: Dual specificity tyrosine-phosphorylation-regulated kinase 1A (Rattus norvegicus, UniProt Q63470); assay type: biochemical, Homo sapiens
[13] = target: Long-chain-fatty-acid--AMP ligase FadD28 (Mycobacterium tuberculosis, UniProt P9WQ59); experiment: Fluorescence polarization aasay to screen for inhibitors that compete for the binding of FadD28 to a bisubstrate Measured in Biochemical System Using Plate Reader - 2147-01_Inhibitor_Dose_CherryPick_Activity.; assay type: functional, Mycobacterium tuberculosis H37Rv
[14] = target: Lysine-specific demethylase 4C (Homo sapiens, UniProt Q9H3R0); experiment: GASC-1 (JMJD2C) histone demethylase inhibitors, dose response, biochemical, DELFIA europium, cherry-picked samples (AID 488835); assay type: functional
[15] = target: sn-1-specific diacylglycerol lipase ABHD11 (Mus musculus, UniProt Q8K4F5); experiment: Late stage assay provider results from the probe development effort to identify inhibitors of LYPLA1: fluorescence-based cell-based gel-based Activity-Based Protein Profiling (ABPP) IC50 for anti-target ABHD11. [Related pubchem assays (depositor defined):AID2174, AID2177, AID2202, AID2203, AID2232, AID2233, AID493105, AID493108, AID493109, AID493110, AID493111, AID493154, AID493161, AID504892]; assay type: functional
Chain of sn-1-specific diacylglycerol lipase ABHD11 (Q8K4F5 whole entry): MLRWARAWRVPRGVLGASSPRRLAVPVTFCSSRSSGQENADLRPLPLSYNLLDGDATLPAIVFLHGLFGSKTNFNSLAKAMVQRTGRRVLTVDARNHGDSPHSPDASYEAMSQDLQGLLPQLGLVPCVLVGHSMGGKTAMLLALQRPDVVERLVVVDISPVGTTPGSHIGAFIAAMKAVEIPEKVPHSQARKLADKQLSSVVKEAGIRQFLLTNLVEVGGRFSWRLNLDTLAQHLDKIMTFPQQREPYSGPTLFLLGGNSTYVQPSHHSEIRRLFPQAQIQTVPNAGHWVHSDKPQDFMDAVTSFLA

[16] = target: Trypsin (Sus scrofa, UniProt P00761); experiment: porcine trypsin inhibitors, dose response, selectivity assay for Rce1 protease inhibitor project, biochemical, quenched peptide fluorescence, cherry-pick (AID 488789)
Chain of Trypsin (P00761 whole entry): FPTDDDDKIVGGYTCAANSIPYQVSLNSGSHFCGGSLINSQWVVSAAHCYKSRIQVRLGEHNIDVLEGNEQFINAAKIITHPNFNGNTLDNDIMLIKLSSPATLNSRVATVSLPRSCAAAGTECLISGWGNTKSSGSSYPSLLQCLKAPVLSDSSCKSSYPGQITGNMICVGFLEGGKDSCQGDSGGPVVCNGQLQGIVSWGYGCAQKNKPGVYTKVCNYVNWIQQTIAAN

[17] = target: CAAX prenyl protease 1 (Saccharomyces cerevisiae S288c, UniProt P47154); experiment: Ste24 protease inhibitors, dose response, biochemical, S. cerevisiae, plate reader, cherry-pick (AID 488815)
Chain of CAAX prenyl protease 1 (P47154 whole entry): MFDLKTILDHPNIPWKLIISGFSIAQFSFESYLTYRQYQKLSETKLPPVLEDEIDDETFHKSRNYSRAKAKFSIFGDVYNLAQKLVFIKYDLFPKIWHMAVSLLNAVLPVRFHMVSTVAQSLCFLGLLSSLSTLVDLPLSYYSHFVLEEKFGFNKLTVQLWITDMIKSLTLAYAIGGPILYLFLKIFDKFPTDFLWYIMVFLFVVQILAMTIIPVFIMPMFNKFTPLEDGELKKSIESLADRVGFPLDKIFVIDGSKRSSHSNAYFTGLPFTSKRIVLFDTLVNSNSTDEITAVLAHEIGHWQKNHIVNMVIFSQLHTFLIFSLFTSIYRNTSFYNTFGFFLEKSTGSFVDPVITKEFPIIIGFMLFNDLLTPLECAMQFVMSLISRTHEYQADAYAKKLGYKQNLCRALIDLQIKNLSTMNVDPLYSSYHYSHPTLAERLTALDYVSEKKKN

[18] = target: T6, CAAX prenyl protease 2 (Homo sapiens, UniProt Q9Y256); experiment: human Rce1 protease inhibitors, dose response, biochemical, yeast membranes, quenched-peptide fluorescence, cherry-pick (AID 588849)
T6 sequence (Q9Y256 whole entry): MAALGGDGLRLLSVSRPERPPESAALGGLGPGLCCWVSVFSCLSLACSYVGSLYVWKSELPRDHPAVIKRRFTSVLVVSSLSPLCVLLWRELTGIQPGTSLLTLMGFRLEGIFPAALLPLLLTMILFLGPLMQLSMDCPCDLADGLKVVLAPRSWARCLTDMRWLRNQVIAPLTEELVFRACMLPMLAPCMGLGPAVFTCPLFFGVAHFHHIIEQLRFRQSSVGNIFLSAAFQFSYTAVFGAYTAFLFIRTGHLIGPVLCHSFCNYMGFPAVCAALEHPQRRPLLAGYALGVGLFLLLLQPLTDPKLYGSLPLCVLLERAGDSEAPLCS

[19] = target: T7, Ubiquitin-conjugating enzyme E2 N (Homo sapiens, UniProt P61088); assay type: functional;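 further: Dose-response confirmation in a TR-FRET assay detecting UBC13-driven polyubiquitin chain formation, inhibition measured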
T7 sequence (P61088 whole entry): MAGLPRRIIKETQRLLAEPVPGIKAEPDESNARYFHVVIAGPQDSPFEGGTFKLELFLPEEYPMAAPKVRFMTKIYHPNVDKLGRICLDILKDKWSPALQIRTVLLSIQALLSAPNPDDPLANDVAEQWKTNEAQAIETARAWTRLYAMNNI

[20] = target: Cytochrome P450 2C19 (Homo sapiens, UniProt P33261); experiment: Cytochrome panel assay with activity outcomes. Panel member name: p450-cyp2c19 Compounds with AC50 equal or less than 10 uM are considered active; assay type: functional
Chain of Cytochrome P450 2C19 (P33261 whole entry): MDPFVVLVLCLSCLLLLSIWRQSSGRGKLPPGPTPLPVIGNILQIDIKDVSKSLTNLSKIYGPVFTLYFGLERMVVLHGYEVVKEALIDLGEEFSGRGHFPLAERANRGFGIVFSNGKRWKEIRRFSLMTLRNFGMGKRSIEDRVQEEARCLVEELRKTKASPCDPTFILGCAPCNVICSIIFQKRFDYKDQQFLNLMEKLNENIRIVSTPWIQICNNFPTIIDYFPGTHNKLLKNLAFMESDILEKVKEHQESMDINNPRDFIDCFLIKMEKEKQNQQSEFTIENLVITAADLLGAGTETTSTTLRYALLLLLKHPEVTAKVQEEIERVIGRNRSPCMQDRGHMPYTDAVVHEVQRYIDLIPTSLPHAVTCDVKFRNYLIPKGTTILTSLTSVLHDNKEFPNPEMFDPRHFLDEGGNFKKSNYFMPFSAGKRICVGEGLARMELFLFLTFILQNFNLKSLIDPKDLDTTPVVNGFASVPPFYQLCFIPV

[21] = target: T8, Cytochrome P450 1A2 (Homo sapiens, UniProt P05177);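 further: PubChem cytochrome P450 panel assay, CYP1A2 panel member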
T8 sequence (P05177 whole entry): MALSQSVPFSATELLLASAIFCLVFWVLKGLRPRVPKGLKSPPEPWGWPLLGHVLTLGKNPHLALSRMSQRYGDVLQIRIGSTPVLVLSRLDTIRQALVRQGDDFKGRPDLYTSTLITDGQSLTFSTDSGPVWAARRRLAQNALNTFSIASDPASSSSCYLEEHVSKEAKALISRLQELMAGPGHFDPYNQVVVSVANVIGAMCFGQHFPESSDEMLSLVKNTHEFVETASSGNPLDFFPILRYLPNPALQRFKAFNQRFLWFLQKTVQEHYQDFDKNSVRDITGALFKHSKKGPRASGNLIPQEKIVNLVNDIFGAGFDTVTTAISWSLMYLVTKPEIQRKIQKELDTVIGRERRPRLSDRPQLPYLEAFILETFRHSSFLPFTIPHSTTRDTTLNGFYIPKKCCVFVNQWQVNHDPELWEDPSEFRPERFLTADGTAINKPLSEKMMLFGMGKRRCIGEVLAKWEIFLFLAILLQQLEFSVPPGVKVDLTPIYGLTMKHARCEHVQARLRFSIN

[22] = target: Cytochrome P450 2C9 (Homo sapiens, UniProt P11712)
Chain of Cytochrome P450 2C9 (P11712 whole entry): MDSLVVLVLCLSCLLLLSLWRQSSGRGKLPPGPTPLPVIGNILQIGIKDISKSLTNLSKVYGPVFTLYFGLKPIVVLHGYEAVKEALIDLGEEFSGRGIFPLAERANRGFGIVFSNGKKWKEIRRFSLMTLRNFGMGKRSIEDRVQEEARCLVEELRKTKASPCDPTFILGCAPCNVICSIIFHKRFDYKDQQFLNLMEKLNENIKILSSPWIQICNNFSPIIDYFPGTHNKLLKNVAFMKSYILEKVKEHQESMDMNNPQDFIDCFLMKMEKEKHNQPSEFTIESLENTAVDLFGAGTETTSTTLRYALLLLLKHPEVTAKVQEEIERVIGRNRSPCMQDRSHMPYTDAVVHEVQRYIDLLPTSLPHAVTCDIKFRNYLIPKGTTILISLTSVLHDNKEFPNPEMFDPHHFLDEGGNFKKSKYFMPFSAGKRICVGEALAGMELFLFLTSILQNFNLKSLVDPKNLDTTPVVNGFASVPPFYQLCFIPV

[23] = target: T3, Intestinal-type alkaline phosphatase; experiment: PubChem AID 488874; assay type: functional
[24] = target: T5, Intestinal-type alkaline phosphatase; experiment: human IAP inhibitors, dose response, biochemical, luminescent, uHTS hits, set 2 (AID 488793); assay type: functional
[25] = target: T5, Intestinal-type alkaline phosphatase; experiment: Dose Response confirmation of uHTS hits from a small molecule inhibitors of human intestinal alkaline phosphatase via a luminescent assay. [Related pubchem assays (depositor defined):AID2544, AID2574]; assay type: functional
[26] = target: T4, Alkaline phosphatase, tissue-nonspecific isozyme; experiment: inhibition of tissue-nonspecific alkaline phosphatase – biochemical, dose response (AID 488882); assay type: functional
[27] = test system: HEK293; experiment: cells; assay type: functional, cell-based; settings: Homo sapiens
[28] = target: Nuclear receptor subfamily 0 group B member 1 (Homo sapiens, UniProt P51843); experiment: Luminescence-based cell-based high throughput dose response assay for inhibitors of the orphan nuclear receptor subfamily 0, group B, member 1 (DAX1; NR0B1). [Related pubchem assays (depositor defined):AID504766, AID504790]; assay type: functional
Chain of Nuclear receptor subfamily 0 group B member 1 (P51843 whole entry): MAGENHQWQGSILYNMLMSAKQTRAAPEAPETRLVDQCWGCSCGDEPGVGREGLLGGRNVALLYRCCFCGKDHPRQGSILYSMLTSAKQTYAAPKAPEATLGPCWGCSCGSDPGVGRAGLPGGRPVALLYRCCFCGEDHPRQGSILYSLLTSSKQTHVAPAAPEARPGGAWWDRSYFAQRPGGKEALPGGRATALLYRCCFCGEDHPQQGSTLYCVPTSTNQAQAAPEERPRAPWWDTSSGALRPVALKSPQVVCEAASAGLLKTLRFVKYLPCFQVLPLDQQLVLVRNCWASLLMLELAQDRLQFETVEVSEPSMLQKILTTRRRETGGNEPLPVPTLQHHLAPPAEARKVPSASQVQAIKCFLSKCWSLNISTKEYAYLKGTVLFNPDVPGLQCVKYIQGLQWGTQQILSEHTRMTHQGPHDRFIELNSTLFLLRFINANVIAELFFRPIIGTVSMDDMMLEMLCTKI

[29] = HeLa cell cytotoxicity, dose response, cytotoxicity control for MgcRacGAP inhibitor project (AID 624300); assay type: functional
[30] = target: T9, Rac GTPase-activating protein 1 (Homo sapiens, UniProt Q9H0H5); experiment: MgcRacGAP GTPase-activating activity inhibitors, confirmation, biochemical, ADP Hunter fluorescence, primary and confirmatory (AID 624330); assay type: functional
T9 sequence (Q9H0H5 whole entry): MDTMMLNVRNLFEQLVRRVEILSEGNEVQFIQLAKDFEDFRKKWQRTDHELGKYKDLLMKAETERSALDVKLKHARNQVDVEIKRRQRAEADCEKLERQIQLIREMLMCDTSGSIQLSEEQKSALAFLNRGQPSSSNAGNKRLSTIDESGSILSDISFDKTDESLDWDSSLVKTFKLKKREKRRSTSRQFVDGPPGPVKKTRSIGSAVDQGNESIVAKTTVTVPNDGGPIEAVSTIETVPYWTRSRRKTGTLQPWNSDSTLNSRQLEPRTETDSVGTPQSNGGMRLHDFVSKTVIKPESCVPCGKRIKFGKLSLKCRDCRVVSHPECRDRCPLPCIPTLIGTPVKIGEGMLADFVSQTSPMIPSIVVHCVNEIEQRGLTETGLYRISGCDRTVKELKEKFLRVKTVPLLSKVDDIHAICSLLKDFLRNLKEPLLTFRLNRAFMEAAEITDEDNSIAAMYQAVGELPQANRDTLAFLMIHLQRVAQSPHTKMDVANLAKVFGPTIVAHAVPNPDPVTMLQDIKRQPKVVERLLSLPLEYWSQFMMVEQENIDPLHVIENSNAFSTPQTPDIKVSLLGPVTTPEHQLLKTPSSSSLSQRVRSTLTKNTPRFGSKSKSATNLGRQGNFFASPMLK

Chain of Lysine-specific demethylase 4A (O75164 whole entry): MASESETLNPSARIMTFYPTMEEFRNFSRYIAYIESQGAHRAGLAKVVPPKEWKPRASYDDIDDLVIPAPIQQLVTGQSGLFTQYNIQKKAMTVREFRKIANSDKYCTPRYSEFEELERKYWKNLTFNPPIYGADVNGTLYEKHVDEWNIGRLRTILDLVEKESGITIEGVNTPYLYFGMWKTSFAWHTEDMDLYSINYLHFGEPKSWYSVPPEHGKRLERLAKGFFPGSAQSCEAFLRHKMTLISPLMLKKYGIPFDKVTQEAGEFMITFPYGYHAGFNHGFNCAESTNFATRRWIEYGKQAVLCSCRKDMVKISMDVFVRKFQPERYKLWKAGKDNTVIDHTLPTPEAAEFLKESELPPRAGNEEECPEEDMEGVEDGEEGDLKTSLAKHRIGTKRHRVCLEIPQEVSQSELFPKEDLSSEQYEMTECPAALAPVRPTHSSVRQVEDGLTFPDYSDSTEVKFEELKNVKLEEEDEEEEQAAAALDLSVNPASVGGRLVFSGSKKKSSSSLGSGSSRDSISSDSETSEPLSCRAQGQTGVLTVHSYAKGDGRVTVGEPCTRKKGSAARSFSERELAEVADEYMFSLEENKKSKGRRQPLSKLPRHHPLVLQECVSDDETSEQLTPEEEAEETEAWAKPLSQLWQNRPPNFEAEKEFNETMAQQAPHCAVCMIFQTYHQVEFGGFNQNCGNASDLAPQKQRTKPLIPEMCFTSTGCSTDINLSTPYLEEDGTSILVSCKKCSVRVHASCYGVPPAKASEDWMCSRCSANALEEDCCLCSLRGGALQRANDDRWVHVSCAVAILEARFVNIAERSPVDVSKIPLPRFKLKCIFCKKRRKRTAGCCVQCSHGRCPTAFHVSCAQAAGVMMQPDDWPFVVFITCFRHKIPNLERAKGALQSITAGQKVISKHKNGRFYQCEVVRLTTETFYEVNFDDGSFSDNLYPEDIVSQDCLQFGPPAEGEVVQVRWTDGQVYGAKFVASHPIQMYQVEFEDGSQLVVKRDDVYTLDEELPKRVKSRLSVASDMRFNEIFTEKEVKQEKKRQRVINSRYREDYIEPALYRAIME

Cc1ccc(N(CC(=O)N2CCn3c2nc2ccccc23)S(=O)(=O)c2c(C)n[nH]c2C)cc1
AC50 [1]: 55.7 µM (active)

CCN(CC)S(=O)(=O)c1ccc(Oc2ccc(S(=O)(=O)N(CC)CC)cc2)cc1
IC50 [2]: > 35 µM (not active) | IC50 [3]: > 35 µM (not active) | IC50 [4]: > 80 µM (inactive) | IC50 [5]: > 80 µM (inactive) | AC50 [6]: 2.23 µM (active)

NS(=O)(=O)c1ccc(-c2ccc(/C=C3\NC(=S)NC3=O)o2)cc1
EC50 [7]: 21.7 µM (inconclusive) | EC50 [8]: 10.8 µM (inconclusive) | IC50 [9]: 9.48 µM (active) | IC50 [10]: 35.3 µM (active) | IC50 [11]: > 100 µM (inactive) | AC50 [12]: 18.3 µM (active) | AC50 [13]: 77.2 µM (active)

C=CCN1C(=O)NC(=O)/C(=C/c2ccoc2)C1=O
AC50 [14]: 22.2 µM (active)

COCC1CCCCN1C(=O)n1ncc(C(O)(c2ccccc2)c2ccccc2)n1 (stereo not given)
IC50 [15]: 0.137 nM (active)

CCc1nnc(NC(=O)c2ccc(NS(=O)(=O)c3ccccc3)cc2)s1
AC50 [16]: 45.1 µM (active) | AC50 [17]: 7.02 µM (active) | AC50 [18]: 5.24 µM (active)

COc1cc(N)c(Cl)cc1C(=O)N[C@H]1CCN(CCCOc2ccc(F)cc2)C[C@H]1OC [REL-CISAPRIDE]
IC50 [19]: > 20 µM (inactive) | AC50 [20]: inactive | AC50 [21]: inactive | AC50 [22]: inconclusive

O=c1oc(-c2ccc(O)c(O)c2)cc2cc(O)cc(O)c12 [THUNBERGINOL B]
IC50 [23]: 7.57 µM (active) | IC50 [24]: 565 nM (active) | IC50 [25]: 2.17 µM (active) | IC50 [26]: 19.5 µM (active) | IC50 [27]: > 67.5 µM (inactive) | IC50 [28]: > 67.5 µM (inactive) | CC50 [29]: 100 µM (active) | IC50 [30]: 20.4 µM (active)
